In patent publication US10961276B2, “Universal antivenom” (CAMRIS International, Inc., priority 2017, dated 2021):
“Also recorded” adds a separate entry of the source.

Tested on: PLA2 of five major snake venoms in the U.S. (all major North American crotalid venoms)
Assay: Cross-species anti-PLA2 activity of phage clone
Assay type: biochemical
Settings: five major snake venoms in the U.S. (FIG. 4)
Method: Analysis of PLAz activity was conducted using the EnzChek® PLAz Assay Kit (Thermo Fisher Scientific, Waltham, Mass.). Individual phage clones were standardized to […] and diluted in log steps. Diluted phages were incubated with 4.88 μg/ml Western Cottonmouth venom for 30 minutes at RT. Fluorescence emission spectra (excitation at 485 nm, emission at 528 nm) was measured for 20 minutes at 1.0 minute intervals to monitor the reaction. PLA2 activity was determined by comparing the phage inhibited venom to uninhibited venom controls.
Originally consensus peptide for panning target was designed with ˜95% homology of all major North American crotalid PLA2. This cross-species reactivity of the selected phage clone is the best evidence for the potential development of a universal antivenom using phage display technique.

KLIHGNGVMDEG [Ph.D.-12-7]
cross-species anti-PLA2 activities: cross-species anti-PLA2 activity; also recorded: showed anti-PLA2 activities across all major North American crotalid venoms
